The values below come from patent US5670546A, “N-Arylalkylphenylacetamide derivatives” (Korean Research Institute of Chemical Technology, priority 1995, dated 1997).

The structures appear in SMILES notation.

In data set [1] the test system is KTC-ICR mice. As to the kind of experiment: acetic acid induced writhing test (analgesic effect). Type of data set: in vivo. The settings on record: for ED50: Mus musculus, ip, read-out: ED50 acetic acid. On the procedure: (§1) Physiological activities of the compounds obtained in Examples 1 to 11 were measured by employing acetic acid or phenyl-1,4-benzoquinone(PBQ) induced writhing test.
(§2) The KTC-ICR mice provided by Experimental Animal Laboratory of Korea Research Institute of Chemical Technology were used as test animals. […] They were tested in a group consisting of 8 mice for each dosage of a test compound after having been adjusted to the testing environment for a week. Food and water were given freely; and illumination was maintained on a 12-hour cycle.
(§3) Test solutions were prepared by dissolving one of the final products obtained in Examples 1 to 11 in distilled water containing 1% of Tween and 5% ethanol in a pre-determined concentration. The test solutions were used after serial dilution depending on each dosage.
(§4) The test solutions were intraperitoneally administered in a dose of 0.1 ml per 10 g of a body weight. 0.1 ml of 1% acetic acid solution or 0.1 ml of 0.02% PBQ solution was administered after 60 minutes in case of oral administration or after 30 minutes in case of subcutaneous injection.
(§5) Then, the number of writhings generated during a period of 10 minutes after 3 minutes from the administration of acetic acid was measured. In case of the administration of PBQ, the number of writhings generated during a period of 5 minutes after 5 minutes from the administration was measured.
(§6) For a comparison purpose, initially, distilled water containing 1% of Tween and 5% ethanol alone was administered to the control group. Then, the control groups were subjected the same procedure as the test groups.
(§7) The number of writhings suffered by the test group was compared with that of the control group; and the analgesic effect was measured in terms of the percentage of inhibition of writhing(I. W.). [formula] wherein: A is the number of writhings suffered by the control group; and
(§8) B is the number of writhings suffered by the test group.
(§9) I.W. values for each dosage were calculated by employing regression analysis. The amount of a test compound which is required in reducing the frequency of writhings to the 50% level of that generated by the control group, i.e., B=0.5A or I.W.=50%, is designated as ED50 (mg/kg of a body weight). Therefore, a lower value of ED50 represents a higher analgesic effect of the tested compound.
Background: In writhing tests, fewer writhes than in controls are read as antinociception.

The test system of data set [2] is KTC-ICR mice. Nature of the data set: phenyl-1,4-benzoquinone (PBQ) induced writhing test (analgesic effect). To be noted: Mus musculus, ip, read-out: ED50 PBQ. In kind it is in vivo. On the procedure:
as §1, §2, §3, §4, §5, §6, §7, §8, §9

The test system of data set [3] is test animals. As to the kind of experiment: toxicity test: behavioral changes in the test animals observed by the naked eye. Type of data set: in vivo, KTC-ICR mice. Set-up: key to Convulsion / Salivation / Urination: score; normal value 0, higher number = greater side effects. The settings on record: score; for Convulsion / Salivation / Urination: normal value 0; for Dyspnoea / Ptosis / Sedation / Vasodilation: normal value 4. On the procedure:
In order to monitor a harmful side-effect or toxicity of the present compounds, various behavioral changes in the test animals were observed. After the test and the control solutions were administered to the animals, symptoms such as sedation, ptosis, dyspnoea, vasodilation, convulsion, salivation and urination were observed by the naked eye and the level of such changes was represented by a numbering system: that is, the normal value of the last three behaviors(i.e., urination, convulsion and salivation) is 0; and that of the others(i.e., sedation, ptosis, dyspnoea and vasodilation) is 4. The higher the number is, the greater the side effects are.

Where [4] appears, read: acetic acid induced writhing, 50% reduction of writhings vs control group, mice 20 to 25 g.
Where [5] appears, read: PBQ induced writhing, 50% reduction of writhings vs control group, mice 14 to 18 g.

On to `CCCCCCCC/C=C\CCCCCCCC(=O)NCc1ccc(O)c(OC)c1` [NE-19550, Nvanillyloleamide, reference compound], for which the ED50 in data set [1] is 15.7 mg/kg.
In the case of `COc1cc(CC(=O)NCCCc2ccc(C)c(C)c2)ccc1OCCNC=O` [Example 6], the median effective dose (ED50) in data set [1] (setting [4]) was found to be 0.26 mg/kg.
With `CC(C)Cc1ccc(C(C)C(=O)O)cc1` (stereo not shown) [Ibuprofen], the ED50 in data set [2] (setting [5]) turned out to be 11 mg/kg.
As for `COc1cc(CC(=O)NCCCc2ccc(C)c(C)c2)ccc1OCCNC(=O)OCc1ccccc1` [Example 7, N-{3-(3,4-dimethylphenyl)propyl}-4-{2-(N-benzyloxycarbonyl)aminoethoxy}-3-methoxyphenylacetamide], the 50% effective dose (ED50) in data set [1] (setting [4]) was found to be 1.51 mg/kg.
In data set [3] (Amount 1 mgg), `COc1cc(CC(=O)NCCCc2ccc(C)c(C)c2)ccc1OCCN1CCNCC1` [Example 5, N-{3-(3,4-dimethylphenyl)propyl}-4-(2-piperazinylethoxy)-3-methoxyphenylacetamide] yielded a Convulsion of 0, a Salivation of 0, a Urination of 0 and a Dyspnoea of 4. Moreover, in data set [3] (Amount 1 mgg), the Ptosis stood at 4, the Sedation was found to be 4 and the Vasodilation is reported as 4. In data set [3] (Amount 2 mgg), this compound came in with a Convulsion of 0, a Salivation of 0, a Urination of 0 and a Dyspnoea of 4. In data set [3] (Amount 2 mgg), this compound displayed a Ptosis of 4, a Sedation of 4 and a Vasodilation of 4. In data set [3] (Amount 4 mgg), the Convulsion was 0, the Salivation was 0, the Urination worked out at 0 and the Dyspnoea turned out to be 4. In addition, in data set [3] (Amount 4 mgg), the Ptosis is on record as 6, the Sedation is reported as 6 and the Vasodilation is recorded as 4. For the same compound, the ED50 in data set [1] (setting [4]) is above 20 mg/kg.
`CCCCC1C(=O)N(c2ccccc2)N(c2ccccc2)C1=O` [Phenylbutazone]: the ED50 in data set [2] (setting [5]) came out at 79.8 mg/kg.
The same measure, in the same setting: under `CNCCOc1ccc(CC(=O)NCCCc2ccc(C)c(C)c2)cc1OC` [Example 8, N-{3-(3,4-dimethylphenyl)propyl}-4-(2-methylaminoethoxy)-3-methoxyphenylacetamide] stands 0.68 mg/kg.
In the case of `COc1cc(CC(=O)NCCCc2ccc(C)c(C)c2)ccc1OCCO` [Example 1, N-{3-(3,4-dimethylphenyl)propyl}-4-(2-hydroxyethoxy)-3-methoxyphenylacetamide], in data set [3] (Amount 1 mgg), the Convulsion was found to be 0, the Salivation is 0, the Urination was determined as 0 and the Dyspnoea is listed as 4. In data set [3] (Amount 1 mgg), this compound returned a Ptosis of 4, a Sedation of 4 and a Vasodilation of 4. In data set [3] (Amount 2 mgg), this compound came in with a Convulsion of 0, a Salivation of 0, a Urination of 0 and a Dyspnoea of 4. In data set [3] (Amount 2 mgg), this compound returned a Ptosis of 4, a Sedation of 4 and a Vasodilation of 4. In data set [3] (Amount 4 mgg), the Convulsion was found to be 0, the Salivation worked out at 0, the Urination came out at 0 and the Dyspnoea is 5. Besides, in data set [3] (Amount 4 mgg), the Ptosis is recorded as 5, the Sedation was determined as 6 and the Vasodilation is reported as 5. The ED50 in data set [1] (setting [4]) was determined as 2.01 mg/kg.
In the case of `COc1cc(CC(=O)NCCCc2ccc(C)c(C)c2)ccc1OCCNCCN` [Example 4, N-{3-(3,4-dimethylphenyl)propyl}-4-[2-{N-(2-aminoethyl)}aminoethoxy]-3-methoxyphenylacetamide], the ED50 in data set [1] (setting [4]) was found to be 1.78 mg/kg.
As for `CCOC(=O)NCCOc1ccc(CC(=O)NCCCc2ccc(C)c(C)c2)cc1OC` [Example 10, N-{3-(3,4-dimethylphenyl)propyl}-4-{2-(N-ethyloxycarbonyl)aminoethoxy}-3-methoxyphenylacetamide], the ED50 acetic acid in data set [1] (setting [4]) is given as > 10 mg/kg of a body weight.
In the case of `CC(=O)Oc1ccccc1C(=O)O` [Aspirin], the ED50 in data set [2] was 71.4 mg/kg.
For the compound `COc1cc(CNC(=O)CCCC/C=C/C(C)C)ccc1O` [Capsaicin, Nvanillyl-trans-8-methyl-6-nonenamide, reference compound], the ED50 in data set [1] is 1.34 mg/kg.
In data set [3] (Amount 0.2 mgg), `COc1cc(CC(=O)NCCCc2ccc(C)c(C)c2)ccc1OCCN` [Control, reference compound] came in with a Convulsion of 1, a Salivation of 0, a Urination of 0 and a Dyspnoea of 4. In data set [3] (Amount 0.2 mgg), the Ptosis turned out to be 4, the Sedation was determined as 4 and the Vasodilation worked out at 4. Besides, in data set [3] (Amount 0.25 mgg), the Convulsion came to 1, the Salivation was 0, the Urination is reported as 0 and the Dyspnoea is listed as 5. In data set [3] (Amount 0.25 mgg), this compound returned a Ptosis of 6, a Sedation of 6 and a Vasodilation of 5. In data set [3] (Amount 0.5 mgg), the Convulsion is on record as 1, the Salivation is recorded as 0, the Urination was determined as 0 and the Dyspnoea turned out to be 6. In data set [3] (Amount 0.5 mgg), the Ptosis is given as 7, the Sedation was 7 and the Vasodilation is listed as 5. In data set [3] (Amount 1 mgg), this compound registered a Convulsion of 1, a Salivation of 0, a Urination of 0 and a Dyspnoea of 6. In data set [3] (Amount 1 mgg), this compound returned a Ptosis of 7, a Sedation of 7 and a Vasodilation of 6.
As for `CCCCCCCC/C=C\CCCCCCCC(=O)NCc1ccc(OCCN)c(OC)c1` [NE-21610, N{4(2-aminoethoxy)-3-methoxybenzyl)-oleamide, reference compound], the ED50 was above 300 mg/kg in data set [1] (setting [4]) and 38.3 mg/kg in data set [2] (setting [5]).
In the case of `COc1cc(CC(=O)NCCCc2ccc(C)c(C)c2)ccc1OCCN1CCCC1` [Example 9, N-{3-(3,4-dimethylphenyl)propyl}-4-{2-(1-pyrrolidinyl)ethoxy}-3-methoxyphenylacetamide], the ED50 in data set [1] (setting [4]) is above 5 mg/kg.
Turning to `COc1cc(CC(=O)NCCCc2ccc(C)c(C)c2)ccc1OCCN(CCO)CCO` [Example 3, N-{3-(3,4-dimethylphenyl)propyl}-4-[2-{N,N-di(2-hydroxyethyl)}aminoethoxy]-3-methoxyphenylacetamide], in data set [3] (Amount 1.25 mgg), the Convulsion is 0, the Salivation is listed as 0, the Urination was 0 and the Dyspnoea stood at 4. In data set [3] (Amount 1.25 mgg), this compound yielded a Ptosis of 4, a Sedation of 4 and a Vasodilation of 4. In data set [3] (Amount 2.5 mgg), this compound returned a Convulsion of 0, a Salivation of 0, a Urination of 0 and a Dyspnoea of 4. In data set [3] (Amount 2.5 mgg), this compound returned a Ptosis of 5, a Sedation of 5 and a Vasodilation of 4. In data set [3] (Amount 5 mgg), this compound came in with a Convulsion of 0, a Salivation of 0, a Urination of 0 and a Dyspnoea of 6. In data set [3] (Amount 5 mgg), this compound had a Ptosis of 7, a Sedation of 6 and a Vasodilation of 5. For the same compound, the ED50 in data set [1] (setting [4]) worked out at 1.41 mg/kg.
As to `COc1cc(CC(=O)NCCCc2ccc(C)c(C)c2)ccc1OCCNC(=O)c1ccccc1OC(C)=O` [Example 11, N-{3-(3,4-dimethylphenyl)propyl}-4-[2-{N-(2-acetoxybenzoyl)}aminoethoxy]-3-methoxyphenylacetamide], in data set [1] (setting [4]), the ED50 worked out at 4.15 mg/kg.
Turning to `COc1ccc2cc([C@H](C)C(=O)O)ccc2c1` [Naproxen], the ED50 in data set [2] (setting [5]) was found to be 17.1 mg/kg.

One may read the ED50 as the dose that gives a 50% effect, or the effect in half of the subjects.
